From the kinase profiling compilation of Christmann-Franck et al. (2016)
One block for each molecule: values may come before it.

Experiments:
Test in all cases: radiometric filter-binding kinase assay
[1] = molecular target: CSK (human) (UniProt P41240)
[2] = molecular target: HIPK1 (human) (UniProt Q86Z02)
[3] = molecular target: STK11 CAB39 STRADA (human) (UniProt Q9Y376+Q7RTN6+Q15831)
[4] = molecular target: MAPK15 (human) (UniProt Q8TD08)
[5] = molecular target: CSNK1D (human) (UniProt P48730)
[6] = molecular target: EEF2K (human) (UniProt O00418)
[7] = molecular target: MAP2K2 (human) (UniProt P36507)
[8] = molecular target: RPS6KA3 KD1 KD2 (human) (UniProt P51812)
[9] = system: AKT1 (human), P31749 [S473D]
[10] = molecular target: NEK6 (human) (UniProt Q9HC98)
[11] = molecular target: IKBKB (human) (UniProt O14920)
[12] = molecular target: EPHA4 (human) (UniProt P54764)
[13] = molecular target: MAP3K1 (human) (UniProt Q13233)
[14] = molecular target: FGFR1 (human) (UniProt P11362)
[15] = molecular target: SRPK1 (human) (UniProt Q96SB4)
[16] = molecular target: MAP3K5 (human) (UniProt Q99683)
[17] = system: PAK2 (human), Q13177 [T402E]
[18] = molecular target: HIPK3 (human) (UniProt Q9H422)
[19] = molecular target: PAK7 (human) (UniProt Q9P286)
[20] = molecular target: MAPK3 (human) (UniProt P27361)
[21] = molecular target: MAPK1 (human) (UniProt P28482)
[22] = molecular target: PLK1 (human) (UniProt P53350)
[23] = molecular target: RPS6KA5 KD1 KD2 (human) (UniProt O75582)
[24] = molecular target: TBK1 (human) (UniProt Q9UHD2)
[25] = molecular target: MAPK9 (human) (UniProt P45984)
[26] = molecular target: BTK (human) (UniProt Q06187)
[27] = molecular target: MAPKAPK3 (human) (UniProt Q16644)
[28] = molecular target: GSK3B (human) (UniProt P49841)
[29] = molecular target: ERBB4 (human) (UniProt Q15303)
[30] = molecular target: BRSK1 (human) (UniProt Q8TDC3)
[31] = molecular target: MAPK8 (human) (UniProt P45983)
[32] = molecular target: MAP2K6 (human) (UniProt P52564)
[33] = molecular target: BRSK2 (human) (UniProt Q8IWQ3)
[34] = molecular target: AURKA (human) (UniProt O14965)
[35] = molecular target: MKNK2 (human) (UniProt Q9HBH9)

STK11 CAB39 STRADA (human), sequence (Q15831 whole entry, looked up): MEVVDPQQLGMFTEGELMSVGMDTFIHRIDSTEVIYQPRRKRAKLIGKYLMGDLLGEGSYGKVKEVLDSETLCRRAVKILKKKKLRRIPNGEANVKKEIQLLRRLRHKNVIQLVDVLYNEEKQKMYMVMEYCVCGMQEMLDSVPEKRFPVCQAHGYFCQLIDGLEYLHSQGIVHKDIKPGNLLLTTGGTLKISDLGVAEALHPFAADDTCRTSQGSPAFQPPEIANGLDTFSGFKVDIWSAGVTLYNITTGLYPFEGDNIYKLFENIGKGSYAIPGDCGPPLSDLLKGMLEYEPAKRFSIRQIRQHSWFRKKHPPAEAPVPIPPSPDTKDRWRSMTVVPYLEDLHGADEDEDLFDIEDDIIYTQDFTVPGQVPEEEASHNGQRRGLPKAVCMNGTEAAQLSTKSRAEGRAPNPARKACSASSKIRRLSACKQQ
STK11 CAB39 STRADA (human), sequence (Q7RTN6 whole entry, looked up): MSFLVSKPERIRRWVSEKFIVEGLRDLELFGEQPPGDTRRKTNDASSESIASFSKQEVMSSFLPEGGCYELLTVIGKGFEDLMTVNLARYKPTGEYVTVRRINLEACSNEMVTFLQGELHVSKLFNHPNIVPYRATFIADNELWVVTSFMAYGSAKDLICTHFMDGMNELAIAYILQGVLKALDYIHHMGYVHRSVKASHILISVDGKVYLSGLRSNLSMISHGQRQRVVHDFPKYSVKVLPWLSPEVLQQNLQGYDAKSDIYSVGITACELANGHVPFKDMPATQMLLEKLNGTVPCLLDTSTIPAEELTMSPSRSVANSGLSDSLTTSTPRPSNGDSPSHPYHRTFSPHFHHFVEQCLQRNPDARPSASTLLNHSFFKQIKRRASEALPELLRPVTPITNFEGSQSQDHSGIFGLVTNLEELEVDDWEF
STK11 CAB39 STRADA (human), sequence (Q9Y376 whole entry, looked up): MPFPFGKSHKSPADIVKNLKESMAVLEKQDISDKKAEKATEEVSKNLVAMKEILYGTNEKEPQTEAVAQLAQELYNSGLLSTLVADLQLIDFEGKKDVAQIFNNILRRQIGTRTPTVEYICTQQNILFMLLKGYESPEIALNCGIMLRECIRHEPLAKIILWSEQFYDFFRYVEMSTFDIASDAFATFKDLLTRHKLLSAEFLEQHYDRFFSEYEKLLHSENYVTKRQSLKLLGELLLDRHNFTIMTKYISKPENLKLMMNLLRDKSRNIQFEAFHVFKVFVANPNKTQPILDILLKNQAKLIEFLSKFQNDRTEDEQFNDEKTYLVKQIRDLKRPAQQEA
CSNK1D (human), sequence (P48730 whole entry, looked up): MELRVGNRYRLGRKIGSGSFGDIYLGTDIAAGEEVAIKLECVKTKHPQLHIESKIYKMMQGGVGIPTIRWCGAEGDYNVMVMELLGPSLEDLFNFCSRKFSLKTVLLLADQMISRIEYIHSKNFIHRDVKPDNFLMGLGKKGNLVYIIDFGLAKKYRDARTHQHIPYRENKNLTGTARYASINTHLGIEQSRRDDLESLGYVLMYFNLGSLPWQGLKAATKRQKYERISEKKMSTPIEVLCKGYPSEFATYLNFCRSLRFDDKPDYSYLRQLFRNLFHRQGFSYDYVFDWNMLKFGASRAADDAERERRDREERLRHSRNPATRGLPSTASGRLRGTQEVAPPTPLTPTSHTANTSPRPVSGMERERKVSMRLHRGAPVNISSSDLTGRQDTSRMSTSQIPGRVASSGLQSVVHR
HIPK3 (human), sequence (Q9H422 whole entry, looked up): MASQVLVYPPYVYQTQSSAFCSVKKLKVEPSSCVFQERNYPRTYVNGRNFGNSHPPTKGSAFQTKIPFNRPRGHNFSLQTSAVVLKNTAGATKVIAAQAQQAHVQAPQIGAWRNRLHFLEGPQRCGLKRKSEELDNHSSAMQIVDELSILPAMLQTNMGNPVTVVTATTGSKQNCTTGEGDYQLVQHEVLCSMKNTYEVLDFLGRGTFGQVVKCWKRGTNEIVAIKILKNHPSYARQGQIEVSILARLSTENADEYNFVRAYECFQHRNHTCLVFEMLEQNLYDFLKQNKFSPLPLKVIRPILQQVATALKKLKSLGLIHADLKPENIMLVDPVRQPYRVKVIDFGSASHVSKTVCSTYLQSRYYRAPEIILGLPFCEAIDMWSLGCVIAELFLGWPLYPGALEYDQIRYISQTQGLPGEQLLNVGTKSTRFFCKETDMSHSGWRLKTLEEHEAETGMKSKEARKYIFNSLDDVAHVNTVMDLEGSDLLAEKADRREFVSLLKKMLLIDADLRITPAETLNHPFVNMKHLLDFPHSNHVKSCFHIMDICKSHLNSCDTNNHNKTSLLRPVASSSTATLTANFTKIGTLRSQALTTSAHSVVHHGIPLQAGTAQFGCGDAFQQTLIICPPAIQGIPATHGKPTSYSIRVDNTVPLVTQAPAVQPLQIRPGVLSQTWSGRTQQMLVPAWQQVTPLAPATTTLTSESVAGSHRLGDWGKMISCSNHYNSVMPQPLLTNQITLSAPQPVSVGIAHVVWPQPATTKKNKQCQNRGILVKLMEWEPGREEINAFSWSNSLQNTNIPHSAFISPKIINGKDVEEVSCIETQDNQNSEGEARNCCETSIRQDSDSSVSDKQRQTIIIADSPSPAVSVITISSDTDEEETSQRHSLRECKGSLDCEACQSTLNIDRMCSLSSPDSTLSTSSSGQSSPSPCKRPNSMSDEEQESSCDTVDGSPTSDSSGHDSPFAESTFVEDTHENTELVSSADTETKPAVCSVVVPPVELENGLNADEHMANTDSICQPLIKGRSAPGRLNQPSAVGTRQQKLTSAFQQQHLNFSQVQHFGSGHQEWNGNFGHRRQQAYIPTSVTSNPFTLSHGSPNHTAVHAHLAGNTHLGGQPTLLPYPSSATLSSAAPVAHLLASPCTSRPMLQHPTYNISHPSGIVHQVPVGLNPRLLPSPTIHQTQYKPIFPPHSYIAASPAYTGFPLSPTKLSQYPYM
BRSK2 (human), sequence (Q8IWQ3 whole entry, looked up): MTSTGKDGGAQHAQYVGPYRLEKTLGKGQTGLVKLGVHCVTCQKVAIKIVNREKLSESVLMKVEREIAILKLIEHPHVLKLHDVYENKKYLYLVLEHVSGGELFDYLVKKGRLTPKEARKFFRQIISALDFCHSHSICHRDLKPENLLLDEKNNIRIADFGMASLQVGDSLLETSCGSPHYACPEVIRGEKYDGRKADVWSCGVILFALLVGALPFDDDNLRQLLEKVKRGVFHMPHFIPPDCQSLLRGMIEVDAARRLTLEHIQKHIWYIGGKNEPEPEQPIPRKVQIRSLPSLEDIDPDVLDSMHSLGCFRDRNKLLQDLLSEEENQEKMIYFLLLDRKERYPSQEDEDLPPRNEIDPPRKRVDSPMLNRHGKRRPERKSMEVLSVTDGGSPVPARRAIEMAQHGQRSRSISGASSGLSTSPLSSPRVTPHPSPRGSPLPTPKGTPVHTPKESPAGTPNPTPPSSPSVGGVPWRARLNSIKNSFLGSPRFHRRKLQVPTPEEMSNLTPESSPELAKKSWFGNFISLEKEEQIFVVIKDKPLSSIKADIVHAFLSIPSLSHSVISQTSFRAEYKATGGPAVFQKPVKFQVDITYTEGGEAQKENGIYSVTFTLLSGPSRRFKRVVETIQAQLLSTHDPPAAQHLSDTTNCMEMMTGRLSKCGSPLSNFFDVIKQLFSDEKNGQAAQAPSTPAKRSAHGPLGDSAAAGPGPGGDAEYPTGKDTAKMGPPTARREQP
NEK6 (human), sequence (Q9HC98 whole entry, looked up): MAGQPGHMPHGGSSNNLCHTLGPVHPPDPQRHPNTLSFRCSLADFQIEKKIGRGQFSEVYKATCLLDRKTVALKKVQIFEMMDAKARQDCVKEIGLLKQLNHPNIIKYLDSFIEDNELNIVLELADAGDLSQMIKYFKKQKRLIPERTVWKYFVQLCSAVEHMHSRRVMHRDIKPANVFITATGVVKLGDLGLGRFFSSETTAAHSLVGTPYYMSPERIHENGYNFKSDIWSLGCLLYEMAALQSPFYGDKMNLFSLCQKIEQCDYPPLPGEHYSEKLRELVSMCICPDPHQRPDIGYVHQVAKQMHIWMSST
FGFR1 (human), sequence (P11362 whole entry, looked up): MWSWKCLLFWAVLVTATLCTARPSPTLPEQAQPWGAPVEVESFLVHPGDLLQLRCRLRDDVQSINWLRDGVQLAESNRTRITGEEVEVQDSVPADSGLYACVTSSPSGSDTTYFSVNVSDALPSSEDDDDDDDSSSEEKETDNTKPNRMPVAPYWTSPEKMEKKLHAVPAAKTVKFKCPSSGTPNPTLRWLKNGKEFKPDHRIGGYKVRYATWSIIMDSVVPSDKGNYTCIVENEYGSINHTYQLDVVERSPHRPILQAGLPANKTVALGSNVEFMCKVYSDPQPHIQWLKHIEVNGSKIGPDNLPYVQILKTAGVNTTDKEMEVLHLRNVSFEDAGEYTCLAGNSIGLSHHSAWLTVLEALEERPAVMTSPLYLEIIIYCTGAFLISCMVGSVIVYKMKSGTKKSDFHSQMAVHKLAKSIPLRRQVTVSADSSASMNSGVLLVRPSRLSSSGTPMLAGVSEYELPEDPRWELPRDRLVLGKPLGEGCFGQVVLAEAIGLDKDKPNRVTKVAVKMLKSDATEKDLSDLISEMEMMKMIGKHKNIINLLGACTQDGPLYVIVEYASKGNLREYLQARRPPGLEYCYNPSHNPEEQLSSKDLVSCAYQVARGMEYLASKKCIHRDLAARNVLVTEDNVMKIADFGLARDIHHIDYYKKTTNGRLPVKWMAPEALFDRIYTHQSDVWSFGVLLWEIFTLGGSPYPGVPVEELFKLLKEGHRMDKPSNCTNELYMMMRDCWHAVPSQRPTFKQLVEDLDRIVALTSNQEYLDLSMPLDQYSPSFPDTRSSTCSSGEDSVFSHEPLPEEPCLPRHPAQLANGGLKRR

- residual activity ([1]; compound 10.0 µM): 106%
- residual activity ([2]; compound 0.1 µM): 111%
- residual activity ([2]; compound 1.0 µM): 104%
- residual activity ([2]; compound 10.0 µM): 130%
- residual activity ([3]; compound 0.1 µM): 118%
- residual activity ([3]; compound 1.0 µM): 103%
- residual activity ([3]; compound 10.0 µM): 97%
- residual activity ([5]; compound 0.1 µM): 96%
- residual activity ([5]; compound 1.0 µM): 96%
- residual activity ([5]; compound 10.0 µM): 92%
- residual activity ([6]; compound 0.1 µM): 106%
- residual activity ([6]; compound 1.0 µM): 97%
- residual activity ([6]; compound 10.0 µM): 85%
- residual activity ([7]; compound 0.1 µM): 113%
- residual activity ([7]; compound 1.0 µM): 108%
- residual activity ([7]; compound 10.0 µM): 79%
- residual activity ([8]; compound 0.1 µM): 104%
- residual activity ([8]; compound 1.0 µM): 79%
- residual activity ([8]; compound 10.0 µM): 50%
- residual activity ([9]; compound 0.1 µM): 109%
- residual activity ([9]; compound 1.0 µM): 97%
- residual activity ([9]; compound 10.0 µM): 98%
- residual activity ([10]; compound 0.1 µM): 109%
- residual activity ([10]; compound 1.0 µM): 96%
- residual activity ([10]; compound 10.0 µM): 66%
- residual activity ([11]; compound 0.1 µM): 115%
- residual activity ([11]; compound 1.0 µM): 109%
- residual activity ([11]; compound 10.0 µM): 101%
- residual activity ([12]; compound 0.1 µM): 99%
- residual activity ([12]; compound 1.0 µM): 103%
- residual activity ([12]; compound 10.0 µM): 78%
- residual activity ([13]; compound 0.1 µM): 102%
- residual activity ([13]; compound 1.0 µM): 109%
- residual activity ([13]; compound 10.0 µM): 109%
- residual activity ([14]; compound 0.1 µM): 95%
- residual activity ([14]; compound 1.0 µM): 91%
- residual activity ([14]; compound 10.0 µM): 68%
- residual activity ([15]; compound 0.1 µM): 89%
- residual activity ([15]; compound 1.0 µM): 63%
- residual activity ([15]; compound 10.0 µM): 19%
- residual activity ([16]; compound 0.1 µM): 106%
- residual activity ([16]; compound 1.0 µM): 80%
- residual activity ([16]; compound 10.0 µM): 10%
- residual activity ([17]; compound 0.1 µM): 102%
- residual activity ([17]; compound 1.0 µM): 103%
- residual activity ([17]; compound 10.0 µM): 93%
- residual activity ([18]; compound 0.1 µM): 112%
- residual activity ([18]; compound 1.0 µM): 108%
- residual activity ([18]; compound 10.0 µM): 96%
- residual activity ([19]; compound 0.1 µM): 108%
- residual activity ([19]; compound 1.0 µM): 101%
- residual activity ([19]; compound 10.0 µM): 101%
- residual activity ([20]; compound 0.1 µM): 111%
- residual activity ([20]; compound 1.0 µM): 108%
- residual activity ([21]; compound 0.1 µM): 102%
- residual activity ([21]; compound 10.0 µM): 81%
- residual activity ([22]; compound 0.1 µM): 102%
- residual activity ([22]; compound 1.0 µM): 114%
- residual activity ([22]; compound 10.0 µM): 98%
- residual activity ([23]; compound 0.1 µM): 120%
- residual activity ([23]; compound 1.0 µM): 105%
- residual activity ([23]; compound 10.0 µM): 99%
- residual activity ([24]; compound 0.1 µM): 110%
- residual activity ([24]; compound 1.0 µM): 87%
- residual activity ([24]; compound 10.0 µM): 96%
- residual activity ([25]; compound 0.1 µM): 123%
- residual activity ([25]; compound 1.0 µM): 111%
- residual activity ([25]; compound 10.0 µM): 107%
- residual activity ([26]; compound 0.1 µM): 120%
- residual activity ([26]; compound 1.0 µM): 118%
- residual activity ([26]; compound 10.0 µM): 107%
- residual activity ([27]; compound 0.1 µM): 114%
- residual activity ([27]; compound 1.0 µM): 62%
- residual activity ([27]; compound 10.0 µM): 30%
- residual activity ([28]; compound 0.1 µM): 126%
- residual activity ([28]; compound 1.0 µM): 99%
- residual activity ([28]; compound 10.0 µM): 88%
- residual activity ([29]; compound 0.1 µM): 92%
- residual activity ([29]; compound 1.0 µM): 105%
- residual activity ([29]; compound 10.0 µM): 99%
- residual activity ([30]; compound 0.1 µM): 86%
- residual activity ([30]; compound 1.0 µM): 55%
- residual activity ([30]; compound 10.0 µM): 29%
- residual activity ([31]; compound 0.1 µM): 96%
- residual activity ([31]; compound 1.0 µM): 93%
- residual activity ([31]; compound 10.0 µM): 92%
- residual activity ([32]; compound 0.1 µM): 95%
- residual activity ([32]; compound 10.0 µM): 91%
- residual activity ([33]; compound 0.1 µM): 77%
- residual activity ([33]; compound 1.0 µM): 32%
- residual activity ([33]; compound 10.0 µM): 8%
- residual activity ([34]; compound 1.0 µM): 102%
- residual activity ([34]; compound 10.0 µM): 84%
- residual activity ([35]; compound 0.1 µM): 111%
- residual activity ([35]; compound 10.0 µM): 26%
SMILES: Cc1ccc(-c2ccc3c(ccc4sc5c(c43)NC[C@@H](C)NC5=O)n2)cn1
- residual activity ([4]; compound 0.1 µM): 96%
- residual activity ([4]; compound 1.0 µM): 79%
- residual activity ([4]; compound 10.0 µM): 38%

- residual activity ([1]; compound 1.0 µM): 102%
- residual activity ([1]; compound 5.0 µM): 109%
- residual activity ([1]; compound 10.0 µM): 99%
- residual activity ([2]; compound 1.0 µM): 52%
- residual activity ([2]; compound 5.0 µM): 48%
- residual activity ([3]; compound 1.0 µM): 60%
- residual activity ([3]; compound 5.0 µM): 17%
- residual activity ([5]; compound 1.0 µM): 96%
- residual activity ([5]; compound 5.0 µM): 94%
- residual activity ([6]; compound 1.0 µM): 83%
- residual activity ([6]; compound 5.0 µM): 60%
- residual activity ([6]; compound 10.0 µM): 89%
- residual activity ([7]; compound 1.0 µM): 90%
- residual activity ([7]; compound 5.0 µM): 48%
- residual activity ([8]; compound 1.0 µM): 12%
- residual activity ([8]; compound 5.0 µM): 6%
- residual activity ([8]; compound 10.0 µM): 6%
- residual activity ([9]; compound 1.0 µM): 87%
- residual activity ([9]; compound 5.0 µM): 62%
- residual activity ([9]; compound 10.0 µM): 85%
- residual activity ([10]; compound 1.0 µM): 34%
- residual activity ([10]; compound 5.0 µM): 11%
- residual activity ([10]; compound 10.0 µM): 65%
- residual activity ([11]; compound 1.0 µM): 33%
- residual activity ([11]; compound 5.0 µM): 6%
- residual activity ([11]; compound 10.0 µM): 68%
- residual activity ([12]; compound 1.0 µM): 98%
- residual activity ([12]; compound 5.0 µM): 89%
- residual activity ([13]; compound 1.0 µM): 64%
- residual activity ([13]; compound 5.0 µM): 38%
- residual activity ([14]; compound 1.0 µM): 24%
- residual activity ([14]; compound 5.0 µM): 4%
- residual activity ([14]; compound 10.0 µM): 29%
- residual activity ([15]; compound 1.0 µM): 62%
- residual activity ([15]; compound 5.0 µM): 47%
- residual activity ([15]; compound 10.0 µM): 84%
- residual activity ([16]; compound 1.0 µM): 129%
- residual activity ([16]; compound 5.0 µM): 154%
- residual activity ([17]; compound 1.0 µM): 5%
- residual activity ([17]; compound 5.0 µM): 2%
- residual activity ([18]; compound 1.0 µM): 37%
- residual activity ([18]; compound 5.0 µM): 33%
- residual activity ([19]; compound 1.0 µM): 99%
- residual activity ([19]; compound 5.0 µM): 49%
- residual activity ([19]; compound 10.0 µM): 121%
- residual activity ([20]; compound 1.0 µM): 9%
- residual activity ([20]; compound 5.0 µM): 6%
- residual activity ([20]; compound 10.0 µM): 8%
- residual activity ([21]; compound 1.0 µM): 56%
- residual activity ([21]; compound 5.0 µM): 39%
- residual activity ([21]; compound 10.0 µM): 101%
- residual activity ([22]; compound 1.0 µM): 90%
- residual activity ([22]; compound 5.0 µM): 12%
- residual activity ([22]; compound 10.0 µM): 9%
- residual activity ([23]; compound 1.0 µM): 79%
- residual activity ([23]; compound 5.0 µM): 65%
- residual activity ([23]; compound 10.0 µM): 101%
- residual activity ([24]; compound 1.0 µM): 59%
- residual activity ([24]; compound 5.0 µM): 22%
- residual activity ([24]; compound 10.0 µM): 77%
- residual activity ([25]; compound 1.0 µM): 94%
- residual activity ([25]; compound 5.0 µM): 80%
- residual activity ([25]; compound 10.0 µM): 94%
- residual activity ([26]; compound 1.0 µM): 28%
- residual activity ([26]; compound 5.0 µM): 19%
- residual activity ([26]; compound 10.0 µM): 27%
- residual activity ([27]; compound 1.0 µM): 26%
- residual activity ([27]; compound 5.0 µM): 10%
- residual activity ([28]; compound 1.0 µM): 68%
- residual activity ([28]; compound 5.0 µM): 30%
- residual activity ([28]; compound 10.0 µM): 106%
- residual activity ([29]; compound 1.0 µM): 62%
- residual activity ([29]; compound 5.0 µM): 49%
- residual activity ([30]; compound 1.0 µM): 29%
- residual activity ([30]; compound 5.0 µM): 24%
- residual activity ([31]; compound 1.0 µM): 99%
- residual activity ([31]; compound 5.0 µM): 76%
- residual activity ([31]; compound 10.0 µM): 89%
- residual activity ([32]; compound 1.0 µM): 93%
- residual activity ([32]; compound 5.0 µM): 70%
- residual activity ([33]; compound 1.0 µM): 39%
- residual activity ([33]; compound 5.0 µM): 14%
- residual activity ([33]; compound 10.0 µM): 48%
- residual activity ([34]; compound 1.0 µM): 2%
- residual activity ([34]; compound 5.0 µM): 2%
- residual activity ([35]; compound 1.0 µM): 97%
- residual activity ([35]; compound 5.0 µM): 78%
- residual activity ([35]; compound 10.0 µM): 87%
SMILES: Oc1ccc2ccccc2c1SSc1c(O)ccc2ccccc12
- residual activity ([4]; compound 1.0 µM): 2%
- residual activity ([4]; compound 5.0 µM): 1%
- residual activity ([4]; compound 10.0 µM): 49%
